For assay [1], the system named is G9a. In words: G9a immunoblotting of nuclear extracts. It counts as cell-based.
The test system of assay [2] is G9a. In words: Ubiquitination assay (His-ubiquitin pull-down, G9a immunoblot). It counts as cell-based. Conditions: MCF7 cells, DMOG 1 mM. How it is done:
The ubiquitination assay was performed as described previously (Lee, Mol. Cell, 2012). Briefly, cells were transfected with expression constructs including His-tagged ubiquitin and treated with 5 μg/ml of MG132 for 4 hrs, lysed in buffer A (6 M guanidinium-HCl, 100 mM sodium phosphate, 10 mM Tris-HCl (pH 8.0), 5 mM imidazole, and 10 mM β-mercaptoethanol), and incubated with Ni^2+-NTA beads (QIAGEN) for 4 hrs at room temperature. The beads were then washed sequentially with buffer A, buffer B (8 M urea, 100 mM sodium phosphate buffer, 10 mM Tris-HCl (pH 8.0), and 10 mM β-mercaptoethanol), and buffer C (8 M urea, 100 mM sodium phosphate buffer, 10 mM Tris-HCl (pH 6.3), and 10 mM β-mercaptoethanol). Bound proteins were eluted with buffer D (200 mM imidazole, 150 mM Tris-HCl (pH 6.7), 30% glycerol, 0.72 M β-mercaptoethanol, and 5% SDS), and subject to immunoblot analysis.
For orientation: Immunoblotting shows a protein as a band on a membrane.

The next assay has as its system G9a and pVHL. In words: Co-immunoprecipitation of G9a and pVHL. The following applies: MCF7 cells, immunoprecipitated with anti-HA. It is filed as cell-based.
In assay [3] the test system is H3K9me2 at promoters of G9a-repressed genes. As to the kind of experiment: ChIP of H3K9me2 on promoters of G9a-repressed genes. It is filed as cell-based. Conditions: MCF7 cells, 3 μM UNC0642, hypoxia. How it is done:
(§1) Quantitative RT-PCR and ChIP assays were conducted as previously described.

Assay [4] concerns AT3 syngeneic mammary tumor. In words: AT3 syngeneic mammary tumor growth in vivo. Also noted: species or system C57BL/6 mice. Conditions: 5 mg/kg intraperitoneally every two days. How it is done: C57BL/6 mice were purchased from the ARC Animal Resources Center. Groups of 8 to 10 mice per experiment were used for experimental tumor assays to ensure adequate power to detect biologic differences. All experiments were approved by the QIMR Berghofer Medical Research Institute Animal Ethics Committee. A total of 1×10^6 AT3 tumor cells were subcutaneously injected into mice in a 100 μL volume (on day 0) and UNC0642 administered every two days between days 16 and day 36. Tumor growth was measured using a digital calliper, and tumor volumes are presented as mean±SEM.

Another assay concerns MDA231. In words: SRB assay, MDA231. It counts as cell-based. The following applies: MDA231, 48 hour treatment, normoxic and hypoxic conditions. Here is the method:
(§2) For proliferation studies, cells (5×10^3) were seeded in 96-place wells and allowed to attach overnight, and then incubated in fresh growth medium in the presence of either the G9a inhibitor UNC0642 (Sigma Aldrich) or the vehicle control DMSO (Sigma Aldrich). Proliferation was evaluated via real-time imaging using IncuCyte Zoom (Essen BioScience) or by performing SRB assays at the end of the treatment. For SRB assays, medium was aspirated and cells were fixed in methylated spirits before being washed with water and stained with SRB (Sigma Aldrich) solution (0.4% in 1% acetic acid). The intensity of the staining was obtained using an optical plate reader at 564 nm. Cell viability was determined using a 3-(4,5-dimethylthiazol-2-yl)-2,5-diphenyltetrazolium bromide ([…]) assay. Cells (3×10^3/well) were seeded directly into 96-well plates and allowed to adhere overnight. 96 hours after drug treatment, 20 μL of MU (5 mg/mL; Sigma-Aldrich) was added. The plates were incubated at 37° C. for 3 hrs before the supernatants were removed, and 100 μL of isopropanol was added to each well. The absorbance value (optical density) of each well was measured at 570 nm.

The next assay has as its system MCF7 and MDA231 cells. As to the kind of experiment: Proliferation by IncuCyte Zoom real-time imaging. Conditions: 48 hours. It is filed as cell-based. How it is done: as §2
The next assay deals with H3K9me2. As to the kind of experiment: Immunoblotting of global H3K9me2. It is filed as cell-based. Conditions: MCF7 nuclear extracts, 6 hrs.
For a further assay, the system named is MCF7. As to the kind of experiment: SRB assay, MCF7. It counts as cell-based. The following applies: MCF7, 48 hour treatment, normoxic and hypoxic conditions. Here is the method: as §2
For orientation: The SRB assay estimates cell density from bound dye.

For another assay, the system named is breast cancer cell lines. As to the kind of experiment: Cell survival (MTT) in breast cancer cell lines. It counts as cell-based. Conditions: UNC0642 at 5 μM. How it is done: as §2
The test system of a further assay is 10 G9a-suppressed genes. As to the kind of experiment: Real-time qPCR of the 10 G9a-suppressed genes. It is filed as cell-based. The following applies: versus control cells. Here is the method: as §1
Briefly, total RNA was isolated using Trizol (Invitrogen) and reverse transcription was performed from 2.5 μg of total RNA using the Superscript III cDNA synthesis kit (Invitrogen). The abundance of mRNA was detected by an ABI VIIA7 system with SYBR Green Master Mix (Life Technologies). Primer pairs were designed to amplify 90-150 bp mRNA specific fragments and were confirmed as unique products by melting curve analysis. The quantity of mRNA was calculated using ΔΔCt method and normalized by using primers to detect HPRT. All reactions were performed in triplicates.

Assay [5] concerns breast cancer cell motility (MCF7, MDA231). In words: Scratch wound assay. It counts as cell-based.
Assay [6] has as its system Bre80 and MCF10A breast epithelial cells. In words: Cell survival (MTT) in normal-like breast epithelial cells. It counts as cell-based. Conditions: UNC0642 at 5 μM. How it is done:
as §2

Residues, ends and D or L forms follow the SMILES beside them. *: point of attachment. Cbz = O=C(OCc1ccccc1)*

Turning to `COC(=O)CNC(=O)C(=O)OC` [DMOG, dimethyloxaloylglycine], the G9a protein levels result in the assay with G9a [1] (MCF7 and MDA231 cells, DMOG 1 mM, DFA 100 μM) is given as “increase in G9a protein levels”. In the assay with G9a [2], the “level of G9a polyubiquitination” value was “markedly reduced”. The “interaction between G9a and pVHL” value in the assay with G9a and pVHL was “significantly inhibited”.

As for `CC(C)C[C@@H](C=O)NC(=O)[C@H](CC(C)C)NC(=O)[C@H](CC(C)C)NC(=O)OCc1ccccc1` [MG132] (Cbz-Leu-Leu-Leu-aldehyde), the G9a protein level entry in the assay with G9a [1] (MCF7 cells, normoxia, 9 hrs, 20 μM MG132) is “increase in G9a protein level”.

On to `COc1cc2c(NC3CCN(C(C)C)CC3)nc(N3CCC(F)(F)CC3)nc2cc1OCCCN1CCCC1` [UNC0642], for which the “hypoxia-mediated increase in H3K9me2 in promoters of G9a-repressed genes” value in assay [3] is given as “almost completely abrogated or significantly reduced”. Further, in assay [4], the “mean tumor volume at end-point versus vehicle treated group” value is recorded as “significantly lower”. Also, the tumor growth result in [4] (days 16 to 36) is “significantly reduced tumor growth”. Besides, the “cells present after treatment” value in the assay on MDA231 and with MCF7 was “less than 20%” throughout. In addition, the “confluency at the end of the experiment, fold less compared to vehicle control” value in the assay with MCF7 and MDA231 cells (2-3 μM) lay in the range of 2 to 2.5 fold. Further, the “proliferation compared to vehicle control” value in the assay with MCF7 and MDA231 cells (various concentrations) is “dose-dependent reduction in proliferation”. Moreover, in the assay with H3K9me2, the “global H3K9me2” value is “significant reduction”. The “survival of cancer cell lines” value with breast cancer cell lines was “significantly attenuated”. In addition, the “hypoxia repression of expression of the 10 G9a-suppressed genes” value with 10 G9a-suppressed genes is “repression was abolished”. For the same compound, in assay [5] (hypoxic condition, 72 hours), the wound closure entry is on record as “not able to close the wound even after 72 hours”. For the same compound, the “cellular migration (denuded area versus vehicle control)” value in [5] (normoxic condition) was “inhibit cellular migration”. The cell survival result in assay [6] is reported as “unaffected”.
